Data from ChEMBL document CHEMBL4251572, “Novel aminopyrimidinyl benzimidazoles as potentially antimicrobial agents: Design, synthesis and biological evaluation” (Eur J Med Chem, 2018).
In brackets after ≈: the same amount, converted by molar mass.

Tests used:
Saccharomyces cerevisiae = test: Antifungal against Saccharomyces cerevisiae after 24 hrs by two fold serial dilution method; assay type: functional
Staphylococcus aureus [1] = test: Ratio of MBC for Staphylococcus aureus ATCC 25923 to MIC for Staphylococcus aureus ATCC 25923; assay type: functional
Candida albicans = test: Antifungal against Candida albicans ATCC 76615 after 24 hrs by two fold serial dilution method; assay type: functional; details: ATCC 76615, 24 h
Staphylococcus aureus [2] = test: Antibacterial activity against Staphylococcus aureus ATCC 25923 incubated for 24 hrs followed by plating onto tryptic soy agar medium and measured after 24 hrs; assay type: functional; details: ATCC 25923, 24 h
Cyberlindnera jadinii = test: Antifungal against Candida utilis after 24 hrs by two fold serial dilution method; assay type: functional; details: Williopsis jadinii
Bacillus = test: Antibacterial activity against Bacillus proteus ATCC 13315 after 24 hrs by micro broth dilution assay; assay type: functional; details: ATCC 13315, 24 h
Staphylococcus aureus [3] = test: Antibacterial activity against methicillin-resistant Staphylococcus aureus N315 after 24 hrs by micro broth dilution assay; assay type: functional; details: N315, 24 h
Staphylococcus aureus [4] = test: Antibacterial activity against Staphylococcus aureus ATCC 25923 after 24 hrs by micro broth dilution assay; assay type: functional; details: ATCC 25923, 24 h
Bacillus subtilis = test: Antibacterial activity against Bacillus subtilis after 24 hrs by micro broth dilution assay; assay type: functional
Escherichia coli [5] = test: Antibacterial activity against Escherichia coli JM109 after 24 hrs by micro broth dilution assay; assay type: functional; details: JM109, 24 h
Pichia norvegensis = test: Antifungal against Candida mycoderma after 24 hrs by two fold serial dilution method; assay type: functional
Pseudomonas aeruginosa [6] = test: Antibacterial activity against Pseudomonas aeruginosa incubated for 24 hrs followed by plating onto tryptic soy agar medium and measured after 24 hrs; assay type: functional
Escherichia coli [7] = test: Antibacterial activity against Escherichia coli DH52 after 24 hrs by micro broth dilution assay; assay type: functional; details: DH52, 24 h
Shigella dysenteriae = test: Antibacterial activity against Shigella dysenteriae after 24 hrs by micro broth dilution assay; assay type: functional
Pseudomonas aeruginosa [8] = test: Antibacterial activity against Pseudomonas aeruginosa after 24 hrs by micro broth dilution assay; assay type: functional
Aspergillus flavus = test: Antifungal against Aspergillus flavus after 24 hrs by two fold serial dilution method; assay type: functional
Salmonella typhi = test: Antibacterial activity against Bacillus typhi after 24 hrs by micro broth dilution assay; assay type: functional, Salmonella enterica subsp. enterica serovar Typhi; details: Salmonella enterica
Micrococcus luteus = test: Antibacterial activity against Micrococcus luteus ATCC4698 after 24 hrs by micro broth dilution assay; assay type: functional; details: ATCC4698, 24 h
Staphylococcus aureus [9] = test: Antibacterial activity against methicillin-resistant Staphylococcus aureus N315 incubated for 24 hrs followed by plating onto tryptic soy agar medium and measured after 24 hrs; assay type: functional; details: N315, 24 h
Pseudomonas aeruginosa [10] = test: Ratio of MBC for Pseudomonas aeruginosa to MIC for Pseudomonas aeruginosa; assay type: functional
Staphylococcus aureus [11] = test: Ratio of MBC for methicillin-resistant Staphylococcus aureus N315 to MIC for methicillin-resistant Staphylococcus aureus N315; assay type: functional

SMILES	MIC (Saccharomyces cerevisiae) [µg/mL]	Ratio (Staphylococcus aureus [1])	MIC (Candida albicans) [µg/mL]	MBC (Staphylococcus aureus [2]) [µg/mL]	MIC (Cyberlindnera jadinii) [µg/mL]	MIC (Bacillus) [µg/mL]	MIC (Staphylococcus aureus [3]) [µg/mL]	MIC (Staphylococcus aureus [4]) [µg/mL]	MIC (Bacillus subtilis) [µg/mL]	MIC (Escherichia coli [5]) [µg/mL]	MIC (Pichia norvegensis) [µg/mL]	MBC (Pseudomonas aeruginosa [6]) [µg/mL]	MIC (Escherichia coli [7]) [µg/mL]	MIC (Shigella dysenteriae) [µg/mL]	MIC (Pseudomonas aeruginosa [8]) [µg/mL]	MIC (Aspergillus flavus) [µg/mL]	MIC (Salmonella typhi) [µg/mL]	MIC (Micrococcus luteus) [µg/mL]	MBC (Staphylococcus aureus [9]) [µg/mL]	Ratio (Staphylococcus aureus [11])	further results
CCCCn1c(-c2cc(-c3ccc(F)cc3)nc(N)n2)nc2ccccc21	32 (≈ 88.5 µM)	2	512 (≈ 1420 µM)	256 (≈ 708 µM)	8 (≈ 22.1 µM)	64 (≈ 177 µM)	256 (≈ 708 µM)	128 (≈ 354 µM)	1 (≈ 2.77 µM)	256 (≈ 708 µM)	8 (≈ 22.1 µM)	> 512	8 (≈ 22.1 µM)	8 (≈ 22.1 µM)	512 (≈ 1420 µM)	512 (≈ 1420 µM)	8 (≈ 22.1 µM)	512 (≈ 1420 µM)	> 512		
CCCCCCCn1c(-c2cc(-c3ccc(C)cc3)nc(N)n2)nc2ccccc21	4 (≈ 10 µM)		32 (≈ 80.1 µM)	> 512	32 (≈ 80.1 µM)	256 (≈ 641 µM)	32 (≈ 80.1 µM)	512 (≈ 1280 µM)	512 (≈ 1280 µM)	16 (≈ 40 µM)	512 (≈ 1280 µM)	4 (≈ 10 µM)	4 (≈ 10 µM)	4 (≈ 10 µM)	4 (≈ 10 µM)	512 (≈ 1280 µM)	2 (≈ 5.01 µM)	8 (≈ 20 µM)	32 (≈ 80.1 µM)	1	Ratio (Pseudomonas aeruginosa [10]): 1
Nc1nc(-c2ccc(Cl)cc2)cc(-c2nc3ccccc3[nH]2)n1	512 (≈ 1590 µM)	4	1 (≈ 3.11 µM)	256 (≈ 796 µM)	2 (≈ 6.22 µM)	8 (≈ 24.9 µM)	128 to 512 (≈ 398 to 1590 µM)	64 (≈ 199 µM)	64 (≈ 199 µM)	32 (≈ 99.4 µM)	512 (≈ 1590 µM)	512 (≈ 1590 µM)	128 (≈ 398 µM)	32 (≈ 99.4 µM)	128 (≈ 398 µM)	4 (≈ 12.4 µM)	512 (≈ 1590 µM)	64 (≈ 199 µM)	256 (≈ 796 µM)	2	Ratio (Pseudomonas aeruginosa [10]): 4
CCCCCCn1c(-c2cc(-c3ccc(C)cc3)nc(N)n2)nc2ccccc21	16 (≈ 41.5 µM)		32 (≈ 83 µM)		8 (≈ 20.8 µM)	16 (≈ 41.5 µM)	16 (≈ 41.5 µM)	128 (≈ 332 µM)	128 (≈ 332 µM)	16 (≈ 41.5 µM)	8 (≈ 20.8 µM)		32 (≈ 83 µM)	256 (≈ 664 µM)	64 (≈ 166 µM)	512 (≈ 1330 µM)	16 (≈ 41.5 µM)	16 (≈ 41.5 µM)			
CCCCCCn1c(-c2cc(-c3ccc(Cl)cc3)nc(N)n2)nc2ccccc21	512 (≈ 1260 µM)	2	4 (≈ 9.85 µM)	512 (≈ 1260 µM)	8 (≈ 19.7 µM)	256 (≈ 631 µM)	32 (≈ 78.8 µM)	256 (≈ 631 µM)	128 (≈ 315 µM)	16 (≈ 39.4 µM)	8 (≈ 19.7 µM)	> 512	2 (≈ 4.93 µM)	64 (≈ 158 µM)	512 (≈ 1260 µM)	32 (≈ 78.8 µM)	128 (≈ 315 µM)	2 (≈ 4.93 µM)	32 (≈ 78.8 µM)	1	
Nc1nc(-c2ccc(F)cc2)cc(-c2nc3ccccc3[nH]2)n1	64 (≈ 210 µM)	1	8 (≈ 26.2 µM)	2 (≈ 6.55 µM)	128 (≈ 419 µM)	128 (≈ 419 µM)	128 (≈ 419 µM)	2 (≈ 6.55 µM)	2 (≈ 6.55 µM)	128 (≈ 419 µM)	256 (≈ 838 µM)	16 (≈ 52.4 µM)	128 (≈ 419 µM)	16 (≈ 52.4 µM)	16 (≈ 52.4 µM)	256 (≈ 838 µM)	8 (≈ 26.2 µM)	32 (≈ 105 µM)	512 (≈ 1680 µM)	4	Ratio (Pseudomonas aeruginosa [10]): 1
CCCCCCn1c(C(=O)/C=C/c2ccc(Cl)cc2Cl)nc2ccccc21	512 (≈ 1280 µM)		512 (≈ 1280 µM)		512 (≈ 1280 µM)	512 (≈ 1280 µM)	256 (≈ 638 µM)	32 (≈ 79.7 µM)	512 (≈ 1280 µM)	512 (≈ 1280 µM)	512 (≈ 1280 µM)		512 (≈ 1280 µM)	512 (≈ 1280 µM)	512 (≈ 1280 µM)	512 (≈ 1280 µM)	512 (≈ 1280 µM)	512 (≈ 1280 µM)			
Nc1nc(-c2nc3ccccc3[nH]2)cc(-c2ccc(Cl)cc2Cl)n1	8 (≈ 22.5 µM)	1	1 (≈ 2.81 µM)	8 (≈ 22.5 µM)	2 (≈ 5.61 µM)	1 (≈ 2.81 µM)	8 (≈ 22.5 µM)	8 (≈ 22.5 µM)	8 (≈ 22.5 µM)	64 (≈ 180 µM)	2 (≈ 5.61 µM)	64 (≈ 180 µM)	16 (≈ 44.9 µM)	16 (≈ 44.9 µM)	32 (≈ 89.8 µM)	8 (≈ 22.5 µM)	16 (≈ 44.9 µM)	1 (≈ 2.81 µM)	16 (≈ 44.9 µM)	2	Ratio (Pseudomonas aeruginosa [10]): 2
CCCCn1c(C(=O)/C=C/c2ccc(C)cc2)nc2ccccc21	4 (≈ 12.6 µM)		16 (≈ 50.2 µM)		512 (≈ 1610 µM)	512 (≈ 1610 µM)	64 (≈ 201 µM)	32 (≈ 100 µM)	128 (≈ 402 µM)	128 (≈ 402 µM)	128 (≈ 402 µM)		512 (≈ 1610 µM)	128 (≈ 402 µM)	16 (≈ 50.2 µM)	4 (≈ 12.6 µM)	128 (≈ 402 µM)	32 (≈ 100 µM)			
CCCCCCCn1c(-c2cc(-c3ccc(Cl)cc3)nc(N)n2)nc2ccccc21	8 (≈ 19 µM)		128 (≈ 305 µM)		4 (≈ 9.52 µM)	512 (≈ 1220 µM)	8 (≈ 19 µM)	128 (≈ 305 µM)	2 (≈ 4.76 µM)	512 (≈ 1220 µM)	16 (≈ 38.1 µM)		16 (≈ 38.1 µM)	4 (≈ 9.52 µM)	64 (≈ 152 µM)	256 (≈ 610 µM)	8 (≈ 19 µM)	512 (≈ 1220 µM)			
CCCCCCn1c(-c2cc(-c3ccc(Cl)cc3Cl)nc(N)n2)nc2ccccc21	512 (≈ 1160 µM)		256 (≈ 581 µM)		512 (≈ 1160 µM)	512 (≈ 1160 µM)	512 (≈ 1160 µM)	512 (≈ 1160 µM)	512 (≈ 1160 µM)	512 (≈ 1160 µM)	512 (≈ 1160 µM)		64 (≈ 145 µM)	512 (≈ 1160 µM)	512 (≈ 1160 µM)	512 (≈ 1160 µM)	512 (≈ 1160 µM)	512 (≈ 1160 µM)			
O=C(/C=C/c1ccc(F)cc1)c1nc2ccccc2[nH]1	4 (≈ 15 µM)		128 (≈ 481 µM)		> 512	32 (≈ 120 µM)	64 (≈ 240 µM)	16 (≈ 60.1 µM)	64 (≈ 240 µM)	16 (≈ 60.1 µM)	128 (≈ 481 µM)		64 (≈ 240 µM)	256 (≈ 961 µM)	128 (≈ 481 µM)	512 (≈ 1920 µM)	32 (≈ 120 µM)	16 (≈ 60.1 µM)			
CCCCCCCCn1c(-c2cc(-c3ccc(C)cc3)nc(N)n2)nc2ccccc21	128 (≈ 310 µM)		512 (≈ 1240 µM)		16 (≈ 38.7 µM)	512 (≈ 1240 µM)	512 (≈ 1240 µM)	512 (≈ 1240 µM)	512 (≈ 1240 µM)	128 (≈ 310 µM)	512 (≈ 1240 µM)		8 (≈ 19.3 µM)	512 (≈ 1240 µM)	512 (≈ 1240 µM)	512 (≈ 1240 µM)	512 (≈ 1240 µM)	16 (≈ 38.7 µM)			
CCCCn1c(-c2cc(-c3ccc(C)cc3)nc(N)n2)nc2ccccc21	32 (≈ 89.5 µM)	4	128 (≈ 358 µM)	32 (≈ 89.5 µM)	4 (≈ 11.2 µM)	16 (≈ 44.8 µM)	16 (≈ 44.8 µM)	8 (≈ 22.4 µM)	16 (≈ 44.8 µM)	16 (≈ 44.8 µM)	8 (≈ 22.4 µM)	16 (≈ 44.8 µM)	32 (≈ 89.5 µM)	16 (≈ 44.8 µM)	8 (≈ 22.4 µM)	64 (≈ 179 µM)	32 (≈ 89.5 µM)	16 (≈ 44.8 µM)	16 (≈ 44.8 µM)	1	
CCCCCCCCn1c(C(=O)/C=C/c2ccc(Cl)cc2Cl)nc2ccccc21	512 (≈ 1190 µM)		512 (≈ 1190 µM)		512 (≈ 1190 µM)	512 (≈ 1190 µM)	64 (≈ 149 µM)	512 (≈ 1190 µM)	512 (≈ 1190 µM)	256 (≈ 596 µM)	512 (≈ 1190 µM)		512 (≈ 1190 µM)	512 (≈ 1190 µM)	512 (≈ 1190 µM)	512 (≈ 1190 µM)	512 (≈ 1190 µM)	512 (≈ 1190 µM)			
CCCCCCCn1c(-c2cc(-c3ccc(Cl)cc3Cl)nc(N)n2)nc2ccccc21	128 (≈ 282 µM)	2	4 (≈ 8.8 µM)	512 (≈ 1130 µM)	128 (≈ 282 µM)	512 (≈ 1130 µM)	512 (≈ 1130 µM)	256 (≈ 563 µM)	256 (≈ 563 µM)	512 (≈ 1130 µM)	256 (≈ 563 µM)	128 (≈ 282 µM)	32 (≈ 70.4 µM)	128 (≈ 282 µM)	64 (≈ 141 µM)	256 (≈ 563 µM)	32 (≈ 70.4 µM)	16 (≈ 35.2 µM)	> 512		Ratio (Pseudomonas aeruginosa [10]): 2
CCCCn1c(C(=O)/C=C/c2ccc(Cl)cc2Cl)nc2ccccc21	16 (≈ 42.9 µM)		256 (≈ 686 µM)		512 (≈ 1370 µM)	512 (≈ 1370 µM)	8 (≈ 21.4 µM)	512 (≈ 1370 µM)	64 (≈ 171 µM)	256 (≈ 686 µM)	128 (≈ 343 µM)		512 (≈ 1370 µM)	16 (≈ 42.9 µM)	512 (≈ 1370 µM)	512 (≈ 1370 µM)	512 (≈ 1370 µM)	512 (≈ 1370 µM)			
